According to patent US20230278958A1 (Merck Patent GmbH, priority 2020, published 2023):

Assays:
YAP-TEAD interaction = assay: SK-HEP-1 reporter assay (8x TEAD responsive elements driving NanoLuc luciferase); assay type: cell-based; conditions: Homo sapiens, SK-HEP1; SK-HEP-1 TEAD-NanoLuc reporter cells, 24 hour incubation, luciferase readout
Summary of the method: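 SK-HEP-1 cells carrying stable 8× TEAD-element NanoLuc reporter, treated in duplicate with 10-point doses (top 30 μM final, 0.3% DMSO) for 24 h at 37 °C. Luciferase activity read by NanoGlo luminescence; IC50 values derived.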

NCI-H226 cells = assay: Viability assay in NCI-H226 (Yap-dependent) cells, CyQUANT; assay type: cell-based; conditions: Homo sapiens, 96 hour incubation
SW620 Yap KO cells = assay: Viability assay in SW620 Yap KO (Yap independent) cells, CyQUANT; assay type: cell-based; conditions: Homo sapiens, SW-620, SW620 YAP/TAZ knock-out (YAP independent) cells, 96 hour incubation
Experimental: The ability of YAP-TEAD inhibitors to inhibit tumor cell growth was evaluated using two different cell lines: NCI-H226, which is a YAP dependent cell line, and SW620 cells, where YAP and TAZ were knocked out using CRISPR to generate a YAP independent cell line.
For the assay, cells were treated in duplicates with the test compounds in a 10-point dose, 1:3 dilution steps, with the top concentration starting at 30 μM (final concentration in assay). After a 96 hour incubation at 37° C., 95% rH, and 5% CO2, a cell-permeant DNA-binding dye that stains only healthy cells (CyQUANT®, Promega) was added to the cells, allowing the quantification of cell viability.
Cell Media: The NCI-H226 cells were cultured in the following media: RPMI 1640, +10% FBS, +1× GlutaMAX, +10 mM HEPES, +0.5% Pen/Strep. The SW620-KO cells were cultured in the following media: DMEM/F-12, +10% FBS, +1× GlutaMAX, +10 mM HEPES, +0.5% Pen/Strep.
Reagents: The reagents used are listed below:
Cell culture: The cells were examined using an inverted microscope to check for health, cell density, etc. To dissociate adherent cells, the monolayer of cells was washed once with pre-warmed PBS. After removing the PBS, 3 ml pre-warmed Accutase was added to a F75 flask, dispersed evenly and the flask was allowed to sit in incubator for ˜4-5 minutes.
When a single cell suspension was obtained, 7 ml of prewarmed growth media was added and resuspended with the cells. The cell suspension was transferred to a sterile 15 ml conical centrifuge tube, and spun for 5 min at 300×g, RT. The supernatant was discarded and the pellet was resuspended in 10 ml of pre-warmed growth media.
The total cell count was determined, and 20 μl of the desired cell number was added to each well of a 384 well plate using a Multidrop Combi. The plates were then incubated for 24 hours at 37° C., 95% rH, and 5% CO2.
Compound treatment: 24 hours after seeding, the cells were treated with compounds.
A 1:333 dilution of compounds, diluted in DMSO, was made to get a final concentration of 0.3% DMSO per well. To transfer the compounds to the assay plate, 120 nl was shot from Labcyte low dead volume plates to the cell plates containing 20 μl media/well with the ECHO 555 liquid handling system.
After treatment, the cells were fed with 20 μl fresh pre-warmed assay media using a Multidrop combi.
The assay plates were then incubated for 96 h at 37° C., 95% rH, and 5% CO2.
96h after treatment 30 μl of CyQuant® reagent was added to the assay plates using a Multidrop combi in the dark. The plates were then incubated for 1 hour at 37° C., 95% rH and 5% CO2. Thereafter, the assay plates were removed from the incubator and allowed to equilibrate to RT for 30 min in the dark without lid. Finally, they were measured using an EnVision microplate reader with a FITC bottom read program.
Experimental data in the Viability assay of the compounds shown in Table 1 are shown in Table 3 below and classified in the following groups: […]

Row | IC50 (YAP-TEAD interaction) | IC50 (NCI-H226 cells) | IC50 (SW620 Yap KO cells) | melting point | Structure (SMILES)
1 | 100 to 1000 nM | 0.1 to 1 µM | > 10 µM | – | O=C(O)c1ccc2c(c1)c1cc(Cc3ccccc3)ccc1n2-c1ccc(C(F)(F)F)cc1 [Compound 1, 6-benzyl-9-[4-(trifluoromethyl)phenyl]-9H-carbazole-3-carboxylic acid]
2 | 1 to 10 nM | 0.001 to 0.1 µM | > 10 µM | – | Cc1cccc2c1c1cc(C(=O)O)ccc1n2-c1ccc(C(F)(F)F)cc1 [Compound 6, 5-methyl-9-[4-(trifluoromethyl)phenyl]-9H-carbazole-3-carboxylic acid]
3 | 10 to 100 nM | 0.1 to 1 µM | > 10 µM | – | O=C(O)c1ccc2c(c1)c1ccccc1n2-c1ccc(C(F)(F)F)cc1 [Compound 8, 9-[4-(trifluoromethyl)phenyl]-9H-carbazole-3-carboxylic acid]
4 | 1 to 10 nM | 0.001 to 0.1 µM | > 10 µM | – | Cc1ccc2c(c1)c1cc(C(=O)O)ccc1n2-c1ccc(C(F)(F)F)cc1 [Compound 10, 6-methyl-9-[4-(trifluoromethyl)phenyl]-9H-carbazole-3-carboxylic acid]
5 | 1 to 10 nM | 0.001 to 0.1 µM | 1 to 10 µM | 184 to 186 °C | CNC(=O)c1ccc2c(c1)c1cc(C)ccc1n2-c1ccc(C(F)(F)F)cc1 [Compound 21, N,6-dimethyl-9-[4-(trifluoromethyl)phenyl]-9H-carbazole-3-carboxamide]
6 | 10 to 100 nM | 1 to 10 µM | – | 242 to 244 °C | CNC(=O)c1ccc2c(c1)c1cc(C(F)(F)F)ccc1n2-c1ccc(C(F)(F)F)cc1 [Compound 30, N-methyl-6-(trifluoromethyl)-9-[4-(trifluoromethyl)phenyl]-9H-carbazole-3-carboxamide]
7 | 10 to 100 nM | 0.001 to 0.1 µM | – | 270 to 272 °C | CNC(=O)c1ccc2c(c1)c1cc(C#N)ccc1n2-c1ccc(C(F)(F)F)cc1 [Compound 33, 6-cyano-N-methyl-9-[4-(trifluoromethyl)phenyl]-9H-carbazole-3-carboxamide]

The next lines start with the compound.

Row | Structure (SMILES) | IC50 (YAP-TEAD interaction) | IC50 (NCI-H226 cells) | IC50 (SW620 Yap KO cells) | melting point
8 | CNC(=O)c1ccc2c(c1)c1nc(C)ccc1n2-c1ccc(C(F)(F)F)cc1 [Compound 22, N,2-dimethyl-5-[4-(trifluoromethyl)phenyl]-5H-pyrido[3,2-b]indole-8-carboxamide] | 10 to 100 nM | 0.001 to 0.1 µM | > 10 µM | 134 to 136 °C
9 | CNC(=O)c1ccc2c(c1)c1nc(OC)ccc1n2-c1ccc(C(F)(F)F)cc1 [Compound 27, 2-methoxy-N-methyl-5-[4-(trifluoromethyl)phenyl]-5H-pyrido[3,2-b]indole-8-carboxamide] | 10 to 100 nM | 0.001 to 0.1 µM | > 10 µM | 180 to 182 °C
10 | CNC(=O)c1ccc2c(c1)c1cc(C(C)C)ccc1n2-c1ccc(C(F)(F)F)cc1 [Compound 28, N-methyl-6-(propan-2-yl)-9-[4-(trifluoromethyl)phenyl]-9H-carbazole-3-carboxamide] | 10 to 100 nM | 0.1 to 1 µM | 1 to 10 µM | 141 to 142 °C
11 | O=C(O)c1cc2c3cccnc3n(-c3ccc(C(F)(F)F)cc3)c2cn1 [Compound 35, 8-[4-(trifluoromethyl)phenyl]-5,8,10-triazatricyclo[7.4.0.0^2,^7]trideca-1(9),2,4,6,10,12-hexaene-4-carboxylic acid] | 10 to 100 nM | 0.1 to 1 µM | – | 185 to 188 °C
